Values quoted from earlier work as cited in PubChem BioAssay AID1259409 (Chemical Carcinogenesis Research Information System (CCRIS), 2018).
Several values for one entry are separate records, joined by “and”; a condition that tells them apart may be missing. Equal values may be shown once.

Test system: rodent chemically induced tumor inhibition, incidence and multiplicity
Assay: CCRIS tumor inhibitor studies

CC1(C)OC(=O)C=C[C@]2(C)[C@H]3CC[C@@]4(C)[C@H](c5ccoc5)OC(=O)[C@H]5O[C@]54[C@]3(C)C(=O)C[C@@H]12
tumour outcome (control, treated, inhibition, significance) (Carcinogen: AZOXYMETHANE, 25843-45-2, Dose [Inhibitor]: 0, 0.05% IN DIET FOR 35 WK BEGINNING 1 WK POST CARCINOGEN LAST DOSE (STUDY DURATION: 38 WK), Route [Inhibitor]: ORAL, Species: RAT, Strain/Sex: F344/MALE, Target Tissue: Type of Lesion: COLON: ADENOCARCINOMA, Dose [Carcinogen]: 20 MG/KG BW 1/WK FOR 2 WK): 18/25 (72%), 2/16 (13%), 82%, p=0.0002 and 18/25 (72%), 4/16 (25%), 65%, p=0.004

c1cc2ccc3ccc4ccc5cccc6c(c1)c2c3c4c56
tumour outcome (control, treated, inhibition, significance) (Carcinogen: BENZO[A]PYRENE, 50-32-8, Dose [Inhibitor]: 7 UG IN 0.1 ML ACETONE 3/WK ADMINISTERED SIMULTANEOUSLY WITH CARCINOGEN FOR DURATION OF STUDY (STUDY DURATION: 368 D), Route [Inhibitor]: DERMAL, Species: MOUSE, Strain/Sex: ICR/FEMALE, Target Tissue: Type of Lesion: SKIN: PAPILLOMA, Dose [Carcinogen]: 5 UG IN 0.1 ML ACETONE 3/WK FOR DURATION OF STUDY, Promoter: NONE USED): 14/50 (28%), 19/50 (38%), -36%, not calculated
tumour outcome (control, treated, inhibition, significance) (Carcinogen: BENZO[A]PYRENE, 50-32-8, Dose [Inhibitor]: 7 UG IN 0.1 ML ACETONE 3/WK ADMINISTERED SIMULTANEOUSLY WITH CARCINOGEN FOR DURATION OF STUDY (STUDY DURATION: 368 D), Route [Inhibitor]: DERMAL, Species: MOUSE, Strain/Sex: ICR/FEMALE, Target Tissue: Type of Lesion: SKIN: SQUAMOUS CARCINOMA, Dose [Carcinogen]: 5 UG IN 0.1 ML ACETONE 3/WK FOR DURATION OF STUDY, Promoter: NONE USED): 10/50 (20%), 10/50 (20%), 0%, not calculated
tumour outcome (control, treated, inhibition, significance) (Carcinogen: BENZO[A]PYRENE, 50-32-8, Dose [Inhibitor]: 21 UG IN 0.1 ML ACETONE 3/WK ADMINISTERED SIMULTANEOUSLY WITH CARCINOGEN FOR DURATION OF STUDY (STUDY DURATION: 368 D), Route [Inhibitor]: DERMAL, Species: MOUSE, Strain/Sex: ICR/FEMALE, Target Tissue: Type of Lesion: SKIN: PAPILLOMA, Dose [Carcinogen]: 5 UG IN 0.1 ML ACETONE 3/WK FOR DURATION OF STUDY, Promoter: NONE USED): 14/50 (28%), 20/50 (40%), -43%, not calculated
tumour outcome (control, treated, inhibition, significance) (Carcinogen: BENZO[A]PYRENE, 50-32-8, Dose [Inhibitor]: 21 UG IN 0.1 ML ACETONE 3/WK ADMINISTERED SIMULTANEOUSLY WITH CARCINOGEN FOR DURATION OF STUDY (STUDY DURATION: 368 D), Route [Inhibitor]: DERMAL, Species: MOUSE, Strain/Sex: ICR/FEMALE, Target Tissue: Type of Lesion: SKIN: SQUAMOUS CARCINOMA, Dose [Carcinogen]: 5 UG IN 0.1 ML ACETONE 3/WK FOR DURATION OF STUDY, Promoter: NONE USED): 10/50 (20%), 18/50 (36%), -80%, not calculated

COc1cc2c(cc1OC)[C@@H]1C(=O)c3ccc4c(c3O[C@@H]1CO2)C=CC(C)(C)O4
tumour outcome (control, treated, inhibition, significance) (Carcinogen: 7,12-DIMETHYLBENZ[A]ANTHRACENE, 57-97-6, Dose [Inhibitor]: 0, 33 UG 2/WK FOR 15 WK APPLIED 1 HR PRIOR TO EACH PROMOTER DOSE (STUDY DURATION: 15 WK), Route [Inhibitor]: DERMAL, Species: MOUSE, Strain/Sex: CD-1/FEMALE, Target Tissue: Type of Lesion: SKIN: TUMOR, Dose [Carcinogen]: 100 UG ONCE, Promoter: 12-O-TETRADECANOYLPHORBOL-13-ACETATE, 16561-29-8): 60%, 10%, 83%, p<0.05
tumour outcome (control, treated, inhibition, significance) (Carcinogen: 7,12-DIMETHYLBENZ[A]ANTHRACENE, 57-97-6, Dose [Inhibitor]: 0, 330 UG 2/WK FOR 15 WK APPLIED 1 HR PRIOR TO EACH PROMOTER DOSE (STUDY DURATION: 15 WK), Route [Inhibitor]: DERMAL, Species: MOUSE, Strain/Sex: CD-1/FEMALE, Target Tissue: Type of Lesion: SKIN: TUMOR, Dose [Carcinogen]: 100 UG ONCE, Promoter: 12-O-TETRADECANOYLPHORBOL-13-ACETATE, 16561-29-8): 60%, 0%, 100%, p<0.05
tumour outcome (control, treated, inhibition, significance) (Carcinogen: N-METHYL-N-NITROSOUREA, 684-93-5, Dose [Inhibitor]: 0, 2 MG/KG BW 5 D/WK FOR DURATION OF STUDY BEGINNING 2 WK PRIOR TO CARCINOGEN DOSE (STUDY DURATION: 194 D), Route [Inhibitor]: GAVAGE, Species: RAT, Strain/Sex: SPRAGUE-DAWLEY/FEMALE, Target Tissue: Type of Lesion: MAMMARY GLAND: ADENOCARCINOMA, Dose [Carcinogen]: 50 MG/KG BW ONCE, Promoter: NONE USED): 100%, 100%, 0%, not significant
tumour outcome (control, treated, inhibition, significance) (Carcinogen: N-METHYL-N-NITROSOUREA, 684-93-5, Dose [Inhibitor]: 0, 4 MG/KG BW 5 D/WK FOR DURATION OF STUDY BEGINNING 2 WK PRIOR TO CARCINOGEN DOSE (STUDY DURATION: 194 D), Route [Inhibitor]: GAVAGE, Species: RAT, Strain/Sex: SPRAGUE-DAWLEY/FEMALE, Target Tissue: Type of Lesion: MAMMARY GLAND: ADENOCARCINOMA, Dose [Carcinogen]: 50 MG/KG BW ONCE, Promoter: NONE USED): 100%, 100%, 0%, not significant

O=C(O)[C@@H](O)[C@@H](O)[C@H](O)[C@@H](O)C(=O)O
tumour outcome (control, treated, inhibition, significance) (Carcinogen: 7,12-DIMETHYLBENZ[A]ANTHRACENE, 57-97-6, Dose [Inhibitor]: 0, 2% IN DIET FOR THE DURATION OF STUDY BEGINNING 1 WK PRIOR TO CARCINOGEN DOSE (STUDY DURATION: 105 WK), Route [Inhibitor]: ORAL, Species: RAT, Strain/Sex: SPRAGUE-DAWLEY/FEMALE, Target Tissue: Type of Lesion: MAMMARY GLAND: TUMOR, Dose [Carcinogen]: 15 MG IN 1 ML SESAME OIL ONCE, Promoter: NONE USED): 88%, 80%, 9%, not significant
tumour outcome (control, treated, inhibition, significance) (Carcinogen: 7,12-DIMETHYLBENZ[A]ANTHRACENE, 57-97-6, Dose [Inhibitor]: 0, 128 MMOL/KG OF DIET FOR 15.5 WK BEGINNING 10 D POST CARCINOGEN DOSE (STUDY DURATION: 17 WK), Route [Inhibitor]: ORAL, Species: RAT, Strain/Sex: SPRAGUE-DAWLEY/FEMALE, Target Tissue: Type of Lesion: MAMMARY GLAND: TUMOR, Dose [Carcinogen]: 15 MG IN 1 ML OF SESAME OIL ONCE AT 50 D OF AGE, Promoter: NONE USED): 92%, 58%, 37%, not calculated
tumour outcome (control, treated, inhibition, significance) (Carcinogen: 7,12-DIMETHYLBENZ[A]ANTHRACENE, 57-97-6, Dose [Inhibitor]: 0, 128 MMOL/KG OF DIET FOR 18.5 WK BEGINNING 10 D PRIOR TO CARCINOGEN DOSE (STUDY DURATION: 18.5 WK), Route [Inhibitor]: ORAL, Species: RAT, Strain/Sex: SPRAGUE-DAWLEY/FEMALE, Target Tissue: Type of Lesion: MAMMARY GLAND: TUMOR, Dose [Carcinogen]: 15 MG IN 1 ML OF SESAME OIL ONCE AT 50 D OF AGE, Promoter: NONE USED): 83%, 50%, 40%, not calculated
tumour outcome (control, treated, inhibition, significance) (Carcinogen: 7,12-DIMETHYLBENZ[A]ANTHRACENE, 57-97-6, Dose [Inhibitor]: 0, 128 MMOL/KG OF DIET FOR 20 D BEGINNING 10 D PRIOR TO CARCINOGEN DOSE (STUDY DURATION: 18.5 WK), Route [Inhibitor]: ORAL, Species: RAT, Strain/Sex: SPRAGUE-DAWLEY/FEMALE, Target Tissue: Type of Lesion: MAMMARY GLAND: TUMOR, Dose [Carcinogen]: 15 MG IN 1 ML OF SESAME OIL ONCE AT 50 D OF AGE, Promoter: NONE USED): 100%, 82%, 18%, not calculated
tumour outcome (control, treated, inhibition, significance) (Carcinogen: 7,12-DIMETHYLBENZ[A]ANTHRACENE, 57-97-6, Dose [Inhibitor]: 32 MMOL/KG OF CHOW DIET IN 25 ML OF THE VEHICLE (ETHANOL/TRICAPRYLIN 1:4 (VOL/VOL) PLUS 6% (WT/VOL) ALPHA-TOCOPHEROL) BE, Route [Inhibitor]: ORAL, Species: RAT, Strain/Sex: SPRAGUE-DAWLEY/FEMALE, Target Tissue: Type of Lesion: MAMMARY GLAND: TUMOR, Dose [Carcinogen]: 75 MG/KG BW IN 1.0 ML SESAME OIL ONCE, Promoter: NONE USED): 70%, 55%, 21%, not significant
tumour outcome (control, treated, inhibition, significance) (Carcinogen: 7,12-DIMETHYLBENZ[A]ANTHRACENE, 57-97-6, Dose [Inhibitor]: 64 MMOL/KG OF CHOW DIET IN 25 ML OF THE VEHICLE (ETHANOL/TRICAPRYLIN 1:4 (VOL/VOL) PLUS 6% (WT/VOL) ALPHA-TOCOPHEROL) BE, Route [Inhibitor]: ORAL, Species: RAT, Strain/Sex: SPRAGUE-DAWLEY/FEMALE, Target Tissue: Type of Lesion: MAMMARY GLAND: TUMOR, Dose [Carcinogen]: 75 MG/KG BW IN 1.0 ML SESAME OIL ONCE, Promoter: NONE USED): 70%, 55%, 21%, not significant
tumour outcome (control, treated, inhibition, significance) (Carcinogen: 7,12-DIMETHYLBENZ[A]ANTHRACENE, 57-97-6, Dose [Inhibitor]: 128 MMOL/KG OF CHOW DIET IN 25 ML OF THE VEHICLE (ETHANOL/TRICAPRYLIN 1:4 (VOL/VOL) PLUS 6% (WT/VOL) ALPHA-TOCOPHEROL) B, Route [Inhibitor]: ORAL, Species: RAT, Strain/Sex: SPRAGUE-DAWLEY/FEMALE, Target Tissue: Type of Lesion: MAMMARY GLAND: TUMOR, Dose [Carcinogen]: 75 MG/KG BW IN 1.0 ML SESAME OIL ONCE, Promoter: NONE USED): 70%, 35%, 50%, not significant
tumour outcome (control, treated, inhibition, significance) (Carcinogen: AZOXYMETHANE [25843-45-2], Dose [Inhibitor]: 3.5% IN DIET FOR 38 WK BEGINNING 1 WK POST LAST CARCINOGEN DOSE (STUDY DURATION: 40 WK), Route [Inhibitor]: ORAL, Species: RAT, Strain/Sex: F344/MALE, Target Tissue: Type of Lesion: COLON: TUMOR, Dose [Carcinogen]: 15 MG/KG BW 1X/WK FOR 2 WK (STUDY DURATION: 40 WK), Promoter: NONE): 15/26 (57.7%), 6/24 (25.0%), 57%, p<0.05
